Assay results from patent US20100204265A1 (priority 2009, published 2010).

tested on: ET (Huh-lucubineo-ET) cell line harboring I389luc-ubi-neo/NS3-3′/ET HCV replicon; assay: Replicon assay (HCV replicon, luciferase readout); type: cell-based; settings: Hepatitis C virus
Protocol: A cell line, ET (Huh-lucubineo-ET) is used for screening of compounds for inhibiting HCV RNA dependent RNA polymerase. The ET cell line is stably transfected with RNA transcripts harboring a I389luc-ubi-neo/NS3-3′/ET; replicon with firefly luciferase-ubiquitin-neomycin phosphotransferase fusion protein and EMCV-IRES driven NS3-5B polyprotein containing the cell culture adaptive mutations (E1202G; T1280I; K1846T) (Krieger at al, 2001 and unpublished). The ET cells are grown in DMEM (Dulbeco's Modified Eagle's Medium), supplemented with 10% fetal calf serum, 2 mM Glutamine, Penicillin (100 IU/mL)/Streptomycin (100 μg/mL), 1× nonessential amino acids, and 250 μg/mL G418 (“Geneticin”). They are all available through Life Technologies (Bethesda, Md.). The cells are plated at 0.5−1.0×10^4 cells/well in the 96 well plates and incubated for 24 hrs before adding test compound. The compounds are added to the cells to achieve a final concentration of 0.1 nM to […] and a final DMSO (dimethylsulfoxide) concentration of 0.5%. Luciferase activity is measured 48-72 hours later by adding a lysis buffer and the substrate (Catalog number Glo-lysis buffer E2661 and Bright-Glo luciferase system E2620 Promega, Madison, Wis.). Cells should not be too confluent during the assay. Percent inhibition of replication data is plotted relative to no compound control. Under the same condition, cytotoxicity of the compounds are determined using cell proliferation reagent, WST-1 (Roche, Germany). The compounds showing antiviral activities, but no significant cytotoxicities are chosen to determine EC50 and TC50. For these determinations, a 10 point, 2-fold serial dilution for each compound was used, which spans a concentration range of 1000 fold. EC50 and similarly TC50 values were calculated by fitting % inhibition at each concentration to the following equation:
% inhibition=100%/[(EC50/[I])^b+1]
where b is Hill's coefficient.

First: COC(=O)[C@H](CCCCNC(=O)OC(C)(C)C)NC(=O)Cc1cn2cc(-c3ccoc3)cc(C(F)(F)F)c2n1 (stereo in doubt) [Compound 153, 6-tert-Butoxycarbonylamino-2-[2-(6-furan-3-yl-8-trifluoromethyl-imidazo[1,2-a]pyridin-2-yl)-acetylamino]-hexanoic acid methyl ester]
Second: COC(=O)[C@@H](NC(=O)Cc1cn2cc(-c3ccoc3)cc(C(F)(F)F)c2n1)C(C)(C)C (stereo in doubt) [Compound 294, 2-[2-(6-Furan-3-yl-8-trifluoromethyl-imidazo[1,2-a]pyridin-2-yl)-acetylamino]-3,3-dimethyl-butyric acid methyl ester]
The EC50 of the first is lower: 13.9 µM for the first, greater than 50 µM for the second. The first is the more potent here.

Compared with NC(=O)[C@H](CO)NC(=O)Cc1cn2cc(-c3ccoc3)cc(C(F)(F)F)c2n1 (stereo in doubt) [Compound 298, 2-[2-(6-Furan-3-yl-8-trifluoromethyl-imidazo[1,2-a]pyridin-2-yl)-acetylamino]-3-hydroxy-propionamide], O=C(O)c1nc2c(C(F)(F)F)cc(-c3ccoc3)cn2c1Cl [Compound 101, 3-Chloro-6-furan-3-yl-8-trifluoromethyl-imidazo[1,2-a]pyridine-2-carboxylic acid] is lower in EC50: greater than 50 µM for the first, 7.01 µM for the second. The second is the more potent here.

Compared with O=C(N[C@@H]1CCN(C(=O)c2nc3c(C(F)(F)F)cc(-c4ccoc4)cn3c2Cl)C1)OCCCl (stereo in doubt) [Compound 321, [1-(3-Chloro-6-furan-3-yl-8-trifluoromethyl-imidazo[1,2-a]pyridine-2-carbonyl)-pyrrolidin-3-yl]-carbamic acid 2-chloro-ethyl ester], O=C(c1nc2c(C(F)(F)F)cc(-c3ccoc3)cn2c1Cl)N1CCC(c2ccccc2F)C(O)C1 (stereo not drawn) [Compound 102, (3-Chloro-6-furan-3-yl-8-trifluoromethyl-imidazo[1,2-a]pyridin-2-yl)-[4-(2-fluoro-phenyl)-3-hydroxy-piperidin-1-yl]-methanone] is lower in EC50: greater than 50 µM for the first, 0.0469 µM for the second. The second is the more potent here.

Compared with O=C(c1nc2c(C(F)(F)F)cc(-c3cn[nH]c3)cn2c1Cl)N1CC=C(c2ccccc2F)C1 [Compound 103, [3-Chloro-6-(1H-pyrazol-4-yl)-8-trifluoromethyl-imidazo[1,2-a]pyridin-2-yl]-[3-(2-fluoro-phenyl)-2,5-dihydro-pyrrol-1-yl]-methanone], O=C(c1nc2c(C(F)(F)F)cc(-c3cn[nH]c3)cn2c1Cl)N1CC=C(c2c[nH]cn2)C1 [Compound 104, [3-Chloro-6-(1H-pyrazol-4-yl)-8-trifluoromethyl-imidazo[1,2-a]pyridin-2-yl]-[3-(1H-imidazol-4-yl)-2,5-dihydro-pyrrol-1-yl]-methanone] is 150-fold higher in EC50: 0.0389 µM for the first, 5.96 µM for the second.

First: O=C(c1nc2c(C(F)(F)F)cc(-c3cn[nH]c3)cn2c1Cl)N1CC=C(c2cncs2)C1 [Compound 105, [3-Chloro-6-(1H-pyrazol-4-yl)-8-trifluoromethyl-imidazo [1,2-a]pyridin-2-yl]-(3-thiazol-5-yl-2,5-dihydro-pyrrol-1-yl)-methanone]
Second: O=C(c1nc2c(C(F)(F)F)cc(-c3cn[nH]c3)cn2c1Cl)N1CC=C(c2cnsc2)C1 [Compound 107, [3-Chloro-6-(1H-pyrazol-4-yl)-8-trifluoromethyl-imidazo [1,2-a]pyridin-2-yl]-(3-isothiazol-4-yl-2,5-dihydro-pyrrol-1-yl)-methanone]
The EC50 of the first is 1.9-fold lower: 0.13 µM for the first, 0.241 µM for the second. The first is the more potent here.

Going from O=C(c1nc2c(C(F)(F)F)cc(-c3ccoc3)cn2c1Cl)N1CC=C(c2cncs2)C1 [Compound 106, (3-Chloro-6-furan-3-yl-8-trifluoromethyl-imidazo[1,2-a]pyridin-2-yl)-(3-thiazol-5-yl-2,5-dihydro-pyrrol-1-yl)-methanone] to CS(=O)(=O)N1CCN(C(=O)c2nc3c(C(F)(F)F)cc(-c4ccoc4)cn3c2Cl)CC1 [Compound 108, (3-Chloro-6-furan-3-yl-8-trifluoromethyl-imidazo[1,2-a]pyridin-2-yl)-(4-methanesulfonyl-piperazin-1-yl)-methanone], the EC50 rises from 0.0886 µM to 24.1 µM (270-fold). The first is the more potent here.
